Values joined by “and” are separate entries in the source; they are usually repeats but may differ in a detail not shown here. Equal entries are not always repeated.
Experiments:
Format in all cases: in vivo
[1] = system: Setaria viridis (SETVI); test: Glasshouse trial on activity boost, post-emergence spraying, visual rating
Protocol: (§1) Seeds of monocot and dicot weeds and crop plants are sown in sandy loam soil in wood fibre pots or in plastic pots, and are covered with soil and cultivated under good growth conditions in the glasshouse and also, during the vegetation period, outdoors outside the glasshouse. 2-3 weeks after sowing, the trial plants are treated at the one- to three-leaf stage. The test compounds, formulated as wettable powders (WP) or liquids (EC), are applied by spraying to the plants and the soil surface in various doses, with a water application rate of 300 l/ha (converted) and with the addition of penetrants (0.2% to 0.4%) and where appropriate an ammonium salt. After the trial plants had stood in the glasshouse for about 3 to 4 weeks under optimum growth conditions, the activity of the products was rated visually in comparison to untreated controls (activity in %, i.e. 0%=no activity or as control, 100%=all plants died).
(§2) For rapeseed oil methyl ester (RME) the following tables specify concentration in % a.i. by volume for ammonium sulphate (AMS) in g/l in the spray liquor.
(§3) ALOMY=Alopecurus myosuroides AVEFA=Avena fatua LOLMU=Lolium multiflorum SETVI=Setaria viridis

[2] = system: Alopecurus myosuroides (ALOMY); test: as above
Protocol: as §1, §2
(§4) ALOMY=Alopecurus myosuroides AVEFA=Avena fatua LOLMU=Lolium multiflorum LOLRI=Lolium rigidum
as §3
(§5) ALOMY=Alopecurus myosuroides AVEFA=Avena fatua LOLMU=Lolium multiflorum SETVI=Setaria viridis BROER=Bromus erectus

[3] = system: Avena fatua (AVEFA); test: as above
Protocol: as §1, §2, §4, §3, §5

[4] = system: Lolium multiflorum (LOLMU); test: as above
Protocol: as §1, §2, §4, §3

[5] = system: APESV; test: as above; settings: 5 g/ha
Protocol: as §1

[6] = system: LOLME; test: as above; settings: 5 g/ha
Protocol: as §1

[7] = system: Bromus erectus (BROER); test: as above; settings: 5 g/ha
Protocol: as §1, §5

[8] = system: Alopecurus myosuroides (ALOMY); test: Plot trials (about 10 m2, 9 trials), post-emergence treatment; settings: 5 g/ha, sum of all trials
Protocol: (§6) In plots measuring approximately 10 m^2, in 9 trials, post-emergence treatments were carried out in 2-3 repetitions with compound (I-1-c-1). The weed population was the natural population and/or a sown population specifically geared to the objective. The active ingredient (I-1-c-1) was delivered as an EC formulation at the stated application rates with a penetrant of the formula (III-c-1) at a concentration of 0.3 g/l in 300 l of water, as a tank mix. In the elements of the trial with ammonium sulphate (AMS) the salt was added at 1 g/l to the spray liquor. Evaluation was made on the day of maximum activity. The activities reported in Table 5 are those obtained over the sum of all the trials.
(§7) AGRRE=Agropyron repens ALOMY=Alopecurus myosuroides AVEFA=Avena fatua

[9] = system: Avena fatua (AVEFA); test: as above; settings: 5 g/ha, sum of all trials
Protocol: as §6, §7

[10] = system: Agropyron repens (AGRRE); test: as above; settings: 5 g/ha, sum of all trials
Protocol: as §6, §7

[11] = system: Lolium rigidum (LOLRI); test: Glasshouse trial on activity boost, post-emergence spraying, visual rating
Protocol: as §1, §2, §4

[12] = 25 g/ha, RME (0.25%) + AMS (3.3 g/l)
[13] = 50 g/ha, RME (0.25%) + AMS (3.3 g/l)
[14] = 12.5 g/ha, RME (0.25%) + AMS (3.3 g/l)
[15] = 100 g/ha, RME (0.25%) + AMS (3.3 g/l)
[16] = 25 g/ha, RME (0.25%) + AMS (0.33 g/l)
[17] = 25 g/ha, RME (0.25%) + AMS (1 g/l)
[18] = 50 g/ha, RME (0.25%) + AMS (0.33 g/l)
[19] = 50 g/ha, RME (0.25%) + AMS (1 g/l)
[20] = Genapol LRO (0.33%) + AMS (3.3 g/l)
[21] = 5 g/ha, Genapol LRO (0.33%) + AMS (3.3 g/l)
[22] = (III-c-1) (0.3 g/l) + AMS (1 g/l)
[23] = 50 g/ha, RME (0.25%) + AMS (6.6 g/l)

## CCc1cc(Br)cc(C)c1C1=C(O)C2(CCC(OC)CC2)NC1=O (stereo not shown) [I-1-a-1]
[1]; 25 g/ha, RME (0.25%)
  Activity: 30%
[1]; [12]
  Activity: 50%
[1]; 50 g/ha, RME (0.25%)
  Activity: 40%
[1]; [13]
  Activity: 50%

## CCc1cc(Br)cc(Cl)c1C1=C(O)C(C)(C2CC2)NC1=O (stereo not shown) [I-1-a-2]
[1]; 12.5 g/ha, RME (0.25%)
  Activity: 5%
[1]; [14]
  Activity: 60%
[1]; 25 g/ha, RME (0.25%)
  Activity: 20%
[1]; [12]
  Activity: 90%
[1]; 50 g/ha, RME (0.25%)
  Activity: 50%
[1]; [13]
  Activity: 93%

## CCc1cc(C)cc(OC)c1C1=C(O)C2CCCN2C1=O (stereo not shown) [I-1-a-3]
[1]; 25 g/ha, RME (0.25%)
  Activity: 15%
[1]; [12]
  Activity: 70%
[1]; 50 g/ha, RME (0.25%)
  Activity: 93%
[1]; [13]
  Activity: 95%
[1]; 100 g/ha, RME (0.25%)
  Activity: 93%
[1]; [15]
  Activity: 99%

## CCc1cccc(CC)c1C1=C(O)[C@]2(CC[C@H](OC)CC2)NC1=O [I-1-a-4]
[2]; 25 g/ha, RME (0.25%)
  Activity: 3%
[2]; [12]
  Activity: 50%
[2]; 50 g/ha, RME (0.25%)
  Activity: 5%
[2]; [13]
  Activity: 70%
[3]; 25 g/ha, RME (0.25%)
  Activity: 3%
[3]; [12]
  Activity: 10%
[3]; 50 g/ha, RME (0.25%)
  Activity: 5%
[3]; [13]
  Activity: 30%
[4]; 25 g/ha, RME (0.25%)
  Activity: 2%
[4]; [12]
  Activity: 75%
[4]; 50 g/ha, RME (0.25%)
  Activity: 5%
[4]; [13]
  Activity: 90%

## CCCCO[C@@H]1CCC[C@]2(C1)NC(=O)C(c1c(C)cc(C)cc1C)=C2O [I-1-a-5]
[2]; 25 g/ha, RME (0.25%)
  Activity: 25%
[2]; [16]
  Activity: 50%
[2]; [17]
  Activity: 50%
[2]; [12]
  Activity: 60%
[4]; 50 g/ha, RME (0.25%)
  Activity: 5%
[4]; [18]
  Activity: 60%
[4]; [19]
  Activity: 93%
[4]; [13]
  Activity: 95%

## CCc1cc(C)cc(Br)c1C1=C(O)C(C)(C)NC1=O [I-1-a-6]
[1]; 12.5 g/ha, RME (0.25%)
  Activity: 50%
[1]; 12.5 g/ha, RME (0.25%) + AMS (0.33 g/l)
  Activity: 65%
[1]; 12.5 g/ha, RME (0.25%) + AMS (1 g/l)
  Activity: 75%
[1]; [14]
  Activity: 90%
[4]; 50 g/ha, RME (0.25%)
  Activity: 5%
[4]; [18]
  Activity: 20%
[4]; [19]
  Activity: 50%
[4]; [13]
  Activity: 65%

## CCc1cc(Cl)ccc1C1=C(OC(=O)C(C)C)C2(CCC(C)CC2)NC1=O (stereo not shown) [I-1-b-1]
[2]; 25 g/ha, RME (0.25%)
  Activity: 5%
[2]; [12]
  Activity: 25%
[2]; 50 g/ha, RME (0.25%)
  Activity: 20%
[2]; [13]
  Activity: 75%
[3]; 25 g/ha, RME (0.25%)
  Activity: 15%
[3]; [12]
  Activity: 60%
[3]; 50 g/ha, RME (0.25%)
  Activity: 50%
[3]; [13]
  Activity: 60%
[4]; 25 g/ha, RME (0.25%)
  Activity: 10%
[4]; [12]
  Activity: 25%
[4]; 50 g/ha, RME (0.25%)
  Activity: 10%
[4]; [13]
  Activity: 75%

## CCOC(=O)OC1=C(c2c(CC)cc(Cl)cc2OC)C(=O)NC12CCC(OC)CC2 (stereo not shown) [I-1-c-1]
[5]; Genapol LRO (0.33%)
  Activity: 93%
[5]; [20]
  Activity: 97%
[6]; Genapol LRO (0.33%)
  Activity: 86%
[6]; [20]
  Activity: 97%
[2]; 5 g/ha, Genapol LRO (0.33%)
  Activity: 73%
[2]; [21]
  Activity: 99%
[3]; 5 g/ha, Genapol LRO (0.33%)
  Activity: 75%
[3]; [21]
  Activity: 100%
[7]; Genapol LRO (0.33%)
  Activity: 73%
[7]; [20]
  Activity: 97%
[8]; [22]
  Activity: 72%
[8]; (III-c-1) (0.3 g/l)
  Activity: 67%
[9]; [22]
  Activity: 90%
[9]; (III-c-1) (0.3 g/l)
  Activity: 80%
[10]; [22]
  Activity: 90%
[10]; (III-c-1) (0.3 g/l)
  Activity: 80%

## CCc1cc(-c2ccc(Cl)cc2)cc(C)c1C1=C(O)C2(CCC(OC)CC2)OC1=O (stereo not shown) [I-2-a-1]
[2]; 50 g/ha, RME (0.25%)
  Activity: 30%
[2]; [23]
  Activity: 70%
[2]; 100 g/ha, RME (0.25%)
  Activity: 30%
[2]; 100 g/ha, RME (0.25%) + AMS (6.6 g/l)
  Activity: 70%
[4]; 25 g/ha, RME (0.25%)
  Activity: 30%
[4]; 50 g/ha, RME (0.25%)
  Activity: 70%
[11]; 25 g/ha, RME (0.25%)
  Activity: 20%
[11]; 50 g/ha, RME (0.25%)
  Activity: 40%
[11]; [23]
  Activity: 80% and 40%

## CC1=CC(=O)C(c2c(C)cc(C)cc2C)C(=O)O1 (stereo not shown) [I-4-a-1]
[1]; 25 g/ha, RME (0.25%)
  Activity: 0%
[1]; [12]
  Activity: 20%
[1]; 50 g/ha, RME (0.25%)
  Activity: 0%
[1]; [13]
  Activity: 90%
[1]; 100 g/ha, RME (0.25%)
  Activity: 0%
[1]; [15]
  Activity: 90%

## CCc1cc(C)cc(C)c1C1C(=O)CC2(CCCCC2)C1=O (stereo not shown) [I-6-a-1]
[1]; 12.5 g/ha, RME (0.25%)
  Activity: 0%
[1]; [14]
  Activity: 25%
[1]; 25 g/ha, RME (0.25%)
  Activity: 15%
[1]; [12]
  Activity: 90%
[1]; 50 g/ha, RME (0.25%)
  Activity: 25%
[1]; [13]
  Activity: 90%

## CCc1cc(C)cc(CC)c1C1C(=O)[C@H]2CCCC[C@@H]2C1=O [I-6-a-2]
[2]; 12.5 g/ha, RME (0.25%)
  Activity: 10%
[2]; [14]
  Activity: 75%
[2]; 25 g/ha, RME (0.25%)
  Activity: 30%
[2]; [12]
  Activity: 93%
[3]; 12.5 g/ha, RME (0.25%)
  Activity: 10%
[3]; [14]
  Activity: 93%
[3]; 25 g/ha, RME (0.25%)
  Activity: 35%
[3]; [12]
  Activity: 99%
[4]; 12.5 g/ha, RME (0.25%)
  Activity: 5%
[4]; [14]
  Activity: 97%
[4]; 25 g/ha, RME (0.25%)
  Activity: 20%
[4]; [12]
  Activity: 100%

## CCc1cc(Cl)cc(OC)c1-c1c(O)n2n(c1=O)CCCC2 [I-8-a-1]
[2]; 12.5 g/ha, RME (0.25%)
  Activity: 5%
[2]; [14]
  Activity: 50%
[2]; 25 g/ha, RME (0.25%)
  Activity: 50%
[2]; [12]
  Activity: 70%
[3]; 12.5 g/ha, RME (0.25%)
  Activity: 30%
[3]; [14]
  Activity: 70%
[3]; 25 g/ha, RME (0.25%)
  Activity: 40%
[3]; [12]
  Activity: 80%
[4]; 12.5 g/ha, RME (0.25%)
  Activity: 10%
[4]; [14]
  Activity: 70%
[4]; 25 g/ha, RME (0.25%)
  Activity: 80%
[4]; [12]
  Activity: 95%

## CCc1cc(C)cc(CC)c1-c1c(OC(=O)C(C)(C)C)n2n(c1=O)CCOCC2 [I-8-b-1]
[2]; 25 g/ha, RME (0.25%)
  Activity: 20%
[2]; [16]
  Activity: 70%
[2]; [17]
  Activity: 50%
[2]; [12]
  Activity: 80%
[2]; 50 g/ha, RME (0.25%)
  Activity: 90%
[2]; [13]
  Activity: 95%
[3]; 25 g/ha, RME (0.25%)
  Activity: 30%
[3]; [12]
  Activity: 80%
[3]; 50 g/ha, RME (0.25%)
  Activity: 70%
[3]; [18]
  Activity: 90%
[3]; [19]
  Activity: 95%
[3]; [13]
  Activity: 97%
[4]; 25 g/ha, RME (0.25%)
  Activity: 60%
[4]; [12]
  Activity: 93%
[4]; 50 g/ha, RME (0.25%)
  Activity: 97%
[4]; [13]
  Activity: 100%
